According to patent publication US20050054615A1, “Calmodulin independent activation of nitric oxide synthase” (Rensselaer Polytechnic Institute, priority 2002, published 2005):
“Also recorded” adds a separate entry of the source. Like-named read-outs stand apart in the source and are kept apart here.

How the values were obtained:
eNOS [1] = target: T1, eNOS (Bos taurus, UniProt P29473); assay: Griess assay of NO production by eNOS; assay type: biochemical, bovine; conditions: for eNOS activity relative to eNOS activated by CaM alone: initial concentrations of NADPH and 2′AMP equal, presence of calcium/CaM
T1 construct: further column purification with gel filtration or anion exchange produces very pure full length NOS; made in house; host or cells: E. coli BL21 (pCWori+)
Method: (§1) Nitric Oxide production was assayed using the Griess assay as adapted for microtiter plates (Gross, S. S. (1996) Methods Enzymol. 268:159-68); calcium dependence was measured using EDTA as a Ca+2 buffer system. […] NADPH-dependent cytochrome c reduction was measured spectrophotometrically as described by McMillan et al (McMillan, K., et al., (1992) Proc Nat. Acad. Sci. U.S.A. 89, 11141-11145), adapted to 96-well plate microtiter plates. In each well, the […] reaction mixture contained 50 mM Na+ TRIS buffer, pH 7.5, 50 uM EDTA, 50 uM NADPH, 50 uM horse heart cytochrome c, and ˜10 nM of nNOS. Cytochrome c reduction was monitored at 550 nm (ε=2.1×104/M). In Cam/Ca+2 dependence studies, 0.75 uM CaCl2 and […] calmodulin were added to reaction mixtures. Assays were performed on a SpectraMAX plate reader (Molecular Devices).
Titration of eNOS with 2′AMP in the presence of ‘fully’ activating levels of Ca+2/CaM was performed using a Greiss assay (see, e.g., the Griess Reagent System, Promega Corporation, Madison, Wis.; and manufacturer's instructions for use). Calcium stoichometries were between two and four. The titration produced an additional activation corresponding to an apparent Kd of ˜1 mM. […] In the most widely used assay systems eNOS is 2-3 fold hyperactivated by 2′AMP (Greiss assay). Enhanced levels of cytochrome c reduction (2-5 fold) can also be observed in both eNOS and nNOS.

cNOS = assay: Activation of constitutive NOS by nucleotide ligands; assay type: biochemical
Method: The effect of 2′AMP on the optical spectra of reductase cofactors in eNOS was also examined for eNOS as isolated and reduced with 1 mM NADPH. eNOS only, eNOS NADPH, eNOS NADPH with 2′AMP, eNOS NADPH with 2′AMP and CAM, and NADPH 2′AMP were compared.
as §1

nNOS [2] = target: T2, nNOS (Rattus norvegicus, UniProt P29476); assay: NADPH-dependent cytochrome c reduction (electron transfer), nNOS; assay type: biochemical
T2 construct: further column purification with gel filtration or anion exchange produces very pure full length NOS; made in house; host or cells: E. coli BL21 (pCWori+)
T2 sequence (P29476 whole entry): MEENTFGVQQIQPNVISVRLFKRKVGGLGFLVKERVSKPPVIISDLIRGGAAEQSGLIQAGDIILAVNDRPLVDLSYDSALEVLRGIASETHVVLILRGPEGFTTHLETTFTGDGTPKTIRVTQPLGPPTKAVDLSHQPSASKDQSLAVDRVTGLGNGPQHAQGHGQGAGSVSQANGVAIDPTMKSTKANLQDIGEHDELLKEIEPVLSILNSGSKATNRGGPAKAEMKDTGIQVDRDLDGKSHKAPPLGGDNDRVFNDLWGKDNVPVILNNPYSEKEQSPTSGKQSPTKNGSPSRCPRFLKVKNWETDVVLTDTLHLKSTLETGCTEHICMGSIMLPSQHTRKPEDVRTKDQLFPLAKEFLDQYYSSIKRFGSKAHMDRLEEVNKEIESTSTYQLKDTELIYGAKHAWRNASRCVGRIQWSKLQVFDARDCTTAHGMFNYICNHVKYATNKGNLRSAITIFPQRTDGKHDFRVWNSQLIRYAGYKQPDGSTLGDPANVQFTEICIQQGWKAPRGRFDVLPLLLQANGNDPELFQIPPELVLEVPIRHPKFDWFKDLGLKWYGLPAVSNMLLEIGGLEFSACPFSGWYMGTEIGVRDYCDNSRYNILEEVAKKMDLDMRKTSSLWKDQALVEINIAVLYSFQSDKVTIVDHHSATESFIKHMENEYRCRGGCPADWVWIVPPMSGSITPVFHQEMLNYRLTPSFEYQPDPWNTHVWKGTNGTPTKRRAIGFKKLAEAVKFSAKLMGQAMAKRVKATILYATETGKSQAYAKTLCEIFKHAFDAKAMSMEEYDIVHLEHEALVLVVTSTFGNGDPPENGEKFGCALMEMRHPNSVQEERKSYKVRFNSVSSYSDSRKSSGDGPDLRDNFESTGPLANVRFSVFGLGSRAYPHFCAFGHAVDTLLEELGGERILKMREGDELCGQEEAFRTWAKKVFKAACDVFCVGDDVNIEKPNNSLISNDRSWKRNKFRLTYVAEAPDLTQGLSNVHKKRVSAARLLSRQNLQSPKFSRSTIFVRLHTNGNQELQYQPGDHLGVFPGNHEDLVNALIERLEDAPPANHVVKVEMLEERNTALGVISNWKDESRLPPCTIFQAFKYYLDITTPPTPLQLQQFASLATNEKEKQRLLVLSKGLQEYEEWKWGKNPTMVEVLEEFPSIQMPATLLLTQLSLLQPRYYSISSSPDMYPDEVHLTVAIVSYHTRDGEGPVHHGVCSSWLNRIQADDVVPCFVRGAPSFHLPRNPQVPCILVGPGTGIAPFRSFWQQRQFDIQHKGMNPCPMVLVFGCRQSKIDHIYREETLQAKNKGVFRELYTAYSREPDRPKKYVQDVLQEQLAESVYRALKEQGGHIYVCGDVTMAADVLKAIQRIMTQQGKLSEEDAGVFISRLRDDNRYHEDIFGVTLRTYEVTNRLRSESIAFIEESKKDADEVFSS

eNOS [3] = target: T3, eNOS (Bos taurus, UniProt P29473); assay: NADPH-dependent cytochrome c reduction (electron transfer), eNOS; assay type: biochemical, bovine
T3 construct: further column purification with gel filtration or anion exchange produces very pure full length NOS; made in house; host or cells: E. coli BL21 (pCWori+)
T3 sequence (P29473 1-1205): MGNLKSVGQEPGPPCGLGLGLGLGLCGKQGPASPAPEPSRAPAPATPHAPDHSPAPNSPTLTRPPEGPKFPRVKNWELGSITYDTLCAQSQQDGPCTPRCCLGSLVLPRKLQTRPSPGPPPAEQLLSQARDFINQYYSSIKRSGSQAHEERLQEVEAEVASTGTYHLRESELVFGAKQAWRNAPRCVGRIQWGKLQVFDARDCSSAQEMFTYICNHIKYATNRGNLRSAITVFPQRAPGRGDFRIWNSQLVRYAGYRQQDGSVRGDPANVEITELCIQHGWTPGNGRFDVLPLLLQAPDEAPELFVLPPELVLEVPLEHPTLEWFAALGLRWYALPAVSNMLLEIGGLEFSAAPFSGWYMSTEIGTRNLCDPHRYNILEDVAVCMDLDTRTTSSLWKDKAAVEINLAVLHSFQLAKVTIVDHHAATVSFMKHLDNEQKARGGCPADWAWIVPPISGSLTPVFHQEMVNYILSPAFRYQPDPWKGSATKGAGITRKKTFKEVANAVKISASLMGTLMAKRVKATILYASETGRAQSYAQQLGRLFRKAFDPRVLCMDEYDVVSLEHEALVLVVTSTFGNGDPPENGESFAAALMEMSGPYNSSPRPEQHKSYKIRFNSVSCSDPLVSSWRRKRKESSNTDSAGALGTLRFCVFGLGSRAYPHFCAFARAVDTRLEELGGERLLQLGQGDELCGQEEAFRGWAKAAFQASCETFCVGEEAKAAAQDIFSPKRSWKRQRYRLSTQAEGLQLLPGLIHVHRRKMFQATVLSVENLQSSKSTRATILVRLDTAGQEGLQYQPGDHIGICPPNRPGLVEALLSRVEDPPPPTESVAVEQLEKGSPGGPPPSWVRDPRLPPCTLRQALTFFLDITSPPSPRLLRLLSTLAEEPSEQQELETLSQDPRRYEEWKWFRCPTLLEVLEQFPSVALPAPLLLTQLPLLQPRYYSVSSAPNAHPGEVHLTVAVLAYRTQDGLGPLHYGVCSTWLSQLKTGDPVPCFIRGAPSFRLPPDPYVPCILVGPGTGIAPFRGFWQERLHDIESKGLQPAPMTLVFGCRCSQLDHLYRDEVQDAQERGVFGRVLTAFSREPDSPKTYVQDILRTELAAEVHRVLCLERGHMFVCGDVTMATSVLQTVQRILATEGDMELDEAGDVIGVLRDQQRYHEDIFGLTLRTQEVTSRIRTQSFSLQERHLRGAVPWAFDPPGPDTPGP

iNOS = target: T4, iNOS (Mus musculus, UniProt P29477); assay: Effect of NADPH analogs on iNOS electron transfer; assay type: biochemical, murine; conditions: Tris buffer, absence of calmodulin
T4 construct: made in house; host or cells: E. coli
T4 sequence (P29477 1-1144): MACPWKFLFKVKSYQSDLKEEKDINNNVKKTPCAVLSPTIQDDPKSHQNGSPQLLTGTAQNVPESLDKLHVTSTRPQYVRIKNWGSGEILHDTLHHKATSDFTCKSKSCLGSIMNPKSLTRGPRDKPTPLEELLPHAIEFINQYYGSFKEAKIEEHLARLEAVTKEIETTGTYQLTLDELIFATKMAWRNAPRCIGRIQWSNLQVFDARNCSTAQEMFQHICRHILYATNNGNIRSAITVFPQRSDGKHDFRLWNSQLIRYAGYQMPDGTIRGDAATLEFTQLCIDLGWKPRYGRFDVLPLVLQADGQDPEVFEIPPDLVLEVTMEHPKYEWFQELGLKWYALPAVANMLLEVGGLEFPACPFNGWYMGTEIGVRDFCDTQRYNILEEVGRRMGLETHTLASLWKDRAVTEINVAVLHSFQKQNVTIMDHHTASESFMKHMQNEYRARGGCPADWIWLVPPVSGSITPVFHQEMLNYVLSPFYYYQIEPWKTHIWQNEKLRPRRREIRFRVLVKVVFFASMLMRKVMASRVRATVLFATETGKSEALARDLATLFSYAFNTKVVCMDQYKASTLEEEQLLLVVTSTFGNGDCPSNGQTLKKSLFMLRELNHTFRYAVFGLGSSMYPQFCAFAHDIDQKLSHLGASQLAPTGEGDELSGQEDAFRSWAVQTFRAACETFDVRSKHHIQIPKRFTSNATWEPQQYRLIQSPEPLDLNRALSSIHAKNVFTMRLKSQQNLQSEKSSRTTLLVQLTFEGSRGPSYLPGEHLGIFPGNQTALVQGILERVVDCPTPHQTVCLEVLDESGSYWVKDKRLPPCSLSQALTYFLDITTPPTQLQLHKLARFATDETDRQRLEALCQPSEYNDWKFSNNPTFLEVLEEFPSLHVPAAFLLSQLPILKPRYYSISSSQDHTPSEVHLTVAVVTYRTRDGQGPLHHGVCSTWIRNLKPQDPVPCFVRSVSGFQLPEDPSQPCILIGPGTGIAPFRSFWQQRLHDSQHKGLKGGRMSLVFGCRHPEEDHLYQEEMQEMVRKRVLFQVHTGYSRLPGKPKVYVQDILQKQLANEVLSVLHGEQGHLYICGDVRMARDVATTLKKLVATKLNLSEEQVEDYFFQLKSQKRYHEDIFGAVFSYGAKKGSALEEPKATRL

nNOS [4] = assay: Nitrite production (Griess) of wild type and mutant nNOS enzymes; assay type: biochemical, rat; conditions: activity of the enzyme preparation, based on heme content
Method: Expression and purification of wild type and mutant bovine eNOS and rat nNOS. Expression and purification of bovine eNOS and rat nNOS were performed using procedures similar to those previously described (Martasek, P.,et al., (1996) Biochem Biophys Res Commun. 219(2); 359-65). Transformed cells were broken with a French press, and after centrifugation to remove cell debris the supernatant was loaded on a 2′5′ADP affinity column, washed, and eluted with 2′AMP as described (id). High purity preparations can be obtained with a size exclusion step; we used a Superose 6 HR 10/30 column (Pharmacia Biotech AB, Uppsala, Sweden), flow rate 0.4 mL/min, buffer composition −50 mM Tris-HCl, pH 7.5, 0.1 mM EDTA, 1 mM-mercaptoethanol, 100 mM NaCl, 10% glycerol (vol/vol). During the purification procedure BH4 or L-arginine were added after elution from the affinity column. Enzyme sample concentrations were determined on the basis of heme concentration, except in heme free preparations, where the flavin concentration was measured. UV-visible absorbance spectra were recorded on an Aminco DW-2000 spectrophotometer.
as §1

[5] = comparison of nucleotide ligands

Compound: Nc1ncnc2c1ncn2[C@@H]1O[C@H](CO)[C@@H](O)[C@H]1OP(=O)(O)O [2′AMP]
- hyperactivation of eNOS (eNOS [1]; Good's buffer systems (e.g., HEPES or MOPS), with Ca+2/CaM): 2-3 fold
- eNOS activity relative to eNOS activated by CaM alone (eNOS [1]): 2-3 times
- eNOS activity relative to eNOS activated by CaM alone (eNOS [1]; listed as 2′ AMP): 3-5 times
- hyperactivation of eNOS (eNOS [1]; most widely used assay systems, Greiss assay): 2-3 fold
- Kd (eNOS [1]; titration of eNOS in the presence of 'fully' activating levels of Ca+2/CaM, plate reader Greiss assay, read-out: apparent Kd of additional activation): ~1000 µM
- activation of cNOS in the absence of calmodulin (cNOS; absence of calmodulin, particularly in Tris buffer): activated cNOS in the absence of calmodulin
- enhanced level (activation) of cytochrome c reduction (nNOS [2]; nNOS): 2-5 fold
- enhanced level (activation) of cytochrome c reduction (eNOS [3]; eNOS): 2-5 fold

Compound: Nc1ncnc2c1ncn2[C@@H]1O[C@H](COP(=O)(O)O)[C@@H](OP(=O)(O)O)[C@H]1O [3′5′ ADP]
- function as NOS activator (cNOS; [5]): only a very weak activator

Compound: Nc1ncnc2c1ncn2[C@@H]1O[C@H](COP(=O)(O)OP(=O)(O)OP(=O)(O)O)[C@@H](O)[C@H]1O [ATP]
- inhibition of iNOS (iNOS): INOS is inhibited; also recorded: inhibition of INOS
- activation of electron transfer by ATP (nNOS [2]; wild type nNOS, Tris buffer, absence of calmodulin): activation of electron transfer
- activation of electron transfer by ATP (eNOS [3]; wild type eNOS, Tris buffer, absence of calmodulin): activation of electron transfer

Compound: Nc1ncnc2c1ncn2[C@@H]1O[C@@H]2COP(=O)(O)O[C@H]2[C@H]1O [Cyclic AMP]
- function as NOS activator (cNOS): did not function as activators

Compound: Nc1nc2c(ncn2[C@@H]2O[C@H](COP(=O)(O)OP(=O)(O)O)[C@@H](O)[C@H]2O)c(=O)[nH]1 [GDP]
- function as NOS activator (cNOS; [5]): did not function as activators

Compound: Nc1nc2c(ncn2[C@@H]2O[C@H](COP(=O)(O)OP(=O)(O)OP(=O)(O)O)[C@@H](O)[C@H]2O)c(=O)[nH]1 [GTP]
- function as NOS activator (cNOS; [5]): did not function as activators

Compound: Nc1nc2c(ncn2[C@@H]2O[C@@H]3COP(=O)(O)O[C@H]3[C@H]2O)c(=O)[nH]1 [cyclic GMP]
- function as NOS activator (cNOS; [5]): did not function as activators

Compound: G1074D mutant: rat nNOS small insertion mutant, Gly 1074 replaced by Asp
- Nitrite production (nNOS [4]): 179.8 nmoles/min/mg NOS

Compound: G1074Y mutant: rat nNOS small insertion mutant, Gly 1074 replaced by Tyr
- Nitrite production (nNOS [4]): 186.2 nmoles/min/mg NOS

Compound: wild-type nNOS: wild type rat neuronal nitric oxide synthase expressed in E. coli
- Nitrite production (nNOS [4]): 292.2 nmoles/min/mg NOS
